The subject of assay [1] is MV4; 11 cells. Description: inhibiting the growth of MV4; 11 cells. Type of assay: cell-based. Conditions: Homo sapiens.
Assay [2] addresses T1, hClpP (Homo sapiens, UniProt Q16740).
T1 construct: made in house
The experiment in a line: activating ClpP hydrolysis of FITC-casein (fluorescence kinetic detection). Type of assay: biochemical. Conditions: hClpP 1 μM, FITC-Casein 4 μM, 37° C. A digest of the protocol: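 hClpP at 1 μM final preincubated with compounds (assay-buffer dilutions 200 μM–2 nM, before mixing) 30 min at 37 °C, then 4 μM final FITC-casein added. Fluorescence read kinetically at 37 °C every 1 min for 15 min, duplicate wells.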

The structures appear in SMILES notation.

T1 sequence (Q16740 57-277): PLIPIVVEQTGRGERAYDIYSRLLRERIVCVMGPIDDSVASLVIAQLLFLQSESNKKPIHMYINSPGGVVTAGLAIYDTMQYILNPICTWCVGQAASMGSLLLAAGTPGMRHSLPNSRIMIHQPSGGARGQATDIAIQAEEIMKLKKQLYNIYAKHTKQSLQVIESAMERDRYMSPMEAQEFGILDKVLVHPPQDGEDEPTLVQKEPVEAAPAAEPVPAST

`COc1ccc(Cn2c(=O)c3c(c4cccnc42)CCN(Cc2cccc(Cl)c2)C3)cc1` [Compound I-100, 6-(4-methoxybenzyl)-3-(3-chlorobenzyl)-2,3,4,6-tetrahydropyrido[3,4-c][1,8]naphthyridine-5-(1H)-one] came in with an IC50 in assay [1] of less than 1000 nM. In addition, in assay [2], the EC50 was less than 1000 nM.

`O=c1c2c(c3cocc3n1Cc1ccc(C(F)(F)F)cc1)CCN(Cc1ccccc1)C2` [Compound I-101, 7-benzyl-4-(4-trifluoromethylbenzyl)-6,7,8,9-tetrahydrofuro[3,4-C][2,7]naphthyridine-5(4H)-one] showed an IC50 in assay [1] of less than 1000 nM. The EC50 in assay [2] is less than 1000 nM.

In assay [1], `O=c1c2c(c3cscc3n1Cc1ccc(C(F)(F)F)cc1)CCN(Cc1ccccc1)C2` [Compound I-102, 7-benzyl-4-(4-trifluoromethylbenzyl)-6,7,8,9-tetrahydrothieno[3,4-C][2,7]naphthyridine-5(4H)-one] gave an IC50 of less than 1000 nM. Moreover, the EC50 in assay [2] was less than 1000 nM.

For the molecule `O=c1c2c(c3sccc3n1Cc1ccc(C(F)(F)F)cc1)CCN(Cc1ccccc1)C2` [Compound I-103, 7-benzyl-4-(4-trifluoromethylbenzyl)-6,7,8,9-tetrahydrothieno[3,2-C][2,7]naphthyridine-5(4H)-one], the half-inhibitory concentration (IC50) in assay [1] is less than 1000 nM. The molecule further yielded an EC50 in assay [2] of less than 1000 nM.

Regarding `O=c1c2c(c3ccsc3n1Cc1ccc(C(F)(F)F)cc1)CCN(Cc1ccccc1)C2` [Compound I-104, 7-benzyl-4-(4-trifluoromethylbenzyl)-6,7,8,9-tetrahydrothieno[2,3-C][2,7]naphthyridine-5(4H)-one], in assay [1], the IC50 was less than 1000 nM. This molecule showed an EC50 in assay [2] of less than 1000 nM.

Molecule `O=c1c2c(c3scnc3n1Cc1ccc(C(F)(F)F)cc1)CCN(Cc1ccccc1)C2` [Compound I-105, 7-benzyl-4-(4-trifluoromethylbenzyl)-6,7,8,9-tetrahydrothiazolo[4,5-C][2,7]naphthyridine-5(4H)-one] came in with an IC50 in assay [1] of 1000 to 10000 nM. In assay [2], this molecule yielded an EC50 of 1000 to 10000 nM.

Molecule `Cc1ccccc1Cn1c(=O)c2c(n3ccnc13)CCN(Cc1ccccc1)C2` [Compound I-106, 7-benzyl-4-(2-methylbenzyl)-6,7,8,9-tetrahydroimidazo[1,2-a]pyrido[3,4-e]pyrimidine-5(4H)-one] had an IC50 in assay [1] of 1000 to 10000 nM. This molecule also returned an EC50 in assay [2] of 1000 to 10000 nM.

Molecule `O=c1c2c(n3ccnc3n1Cc1ccccc1)CCN(Cc1ccccc1)C2` [Compound I-107, 4,7-dibenzyl-6,7,8,9-tetrahydroimidazo[1,2-a]pyrido[3,4-e]pyrimidine-5(4H)-one] registered an IC50 in assay [1] of 1000 to 10000 nM. Further, the EC50 in assay [2] fell in the range of 1000 to 10000 nM.

In assay [1], `O=c1c2c(n3ccnc3n1Cc1ccccc1)CCN(Cc1cccc(F)c1)C2` [Compound I-108, 7-(3-fluorobenzyl)-4-benzyl-6,7,8,9-tetrahydroimidazo[1,2-a]pyrido[3,4-e]pyrimidine-5(4H)-one] yielded an IC50 of less than 1000 nM. For the same molecule, the EC50 in assay [2] was less than 1000 nM.

Molecule `O=c1c2c(n3ccnc3n1Cc1ccccc1)CCN(Cc1cccc(Cl)c1)C2` [Compound I-109, 7-(3-chlorobenzyl)-4-benzyl-6,7,8,9-tetrahydroimidazo[1,2-a]pyrido[3,4-e]pyrimidine-5(4H)-one] registered an IC50 in assay [1] of less than 1000 nM. For the same molecule, in assay [2], the EC50 is less than 1000 nM.

In assay [1], `Cc1cccc(CN2CCc3c(c(=O)n(Cc4ccccc4)c4nccn34)C2)c1` [Compound I-110, 7-(3-methylbenzyl)-4-benzyl-6,7,8,9-tetrahydroimidazo[1,2-a]pyrido[3,4-e]pyrimidine-5(4H)-one] returned an IC50 of less than 1000 nM. Moreover, the EC50 in assay [2] was less than 1000 nM.

`N#Cc1cccc(CN2CCc3c(c(=O)n(Cc4ccccc4)c4nccn34)C2)c1` [Compound I-111, 7-(3-cyanobenzyl)-4-benzyl-6,7,8,9-tetrahydroimidazo[1,2-a]pyrido[3,4-e]pyrimidine-5(4H)-one]: the 50% inhibitory concentration (IC50) in assay [1] was less than 1000 nM. Besides, the EC50 in assay [2] was less than 1000 nM.

In assay [1], `O=c1c2c(n3ccnc3n1Cc1ccc(F)cc1)CCN(Cc1ccccc1)C2` [Compound I-112, 7-benzyl-4-(4-fluorobenzyl)-6,7,8,9-tetrahydroimidazo[1,2-a]pyrido[3,4-e]pyrimidine-5(4H)-one] displayed a concentration for half-maximal inhibition (IC50) of less than 1000 nM. This molecule also yielded an EC50 in assay [2] of less than 1000 nM.

Turning to `O=c1c2c(n3ccnc3n1Cc1ccc(F)cc1)CCN(Cc1cccc(F)c1)C2` [Compound I-113, 7-(3-fluorobenzyl)-4-(4-fluorobenzyl)-6,7,8,9-tetrahydroimidazo[1,2-a]pyrido[3,4-e]pyrimidine-5(4H)-one], the IC50 in assay [1] is less than 1000 nM. In assay [2], this molecule returned a 50% effective concentration (EC50) of less than 1000 nM.

In assay [1], `O=c1c2c(n3ccnc3n1Cc1ccc(F)cc1)CCN(Cc1cccc(Cl)c1)C2` [Compound I-114, 7-(3-chlorobenzyl)-4-(4-fluorobenzyl)-6,7,8,9-tetrahydroimidazo[1,2-a]pyrido[3,4-e]pyrimidine-5(4H)-one] yielded an IC50 of less than 1000 nM. The same molecule returned an EC50 in assay [2] of less than 1000 nM.

In assay [1], `Cc1cccc(CN2CCc3c(c(=O)n(Cc4ccc(F)cc4)c4nccn34)C2)c1` [Compound I-115, 7-(3-methylbenzyl)-4-(4-fluorobenzyl)-6,7,8,9-tetrahydroimidazo[1,2-a]pyrido[3,4-e]pyrimidine-5(4H)-one] displayed an IC50 of less than 1000 nM. The concentration for a half-maximal effect (EC50) in assay [2] was less than 1000 nM.

In the case of `N#Cc1cccc(CN2CCc3c(c(=O)n(Cc4ccc(F)cc4)c4nccn34)C2)c1` [Compound I-116, 7-(3-cyanobenzyl)-4-(4-fluorobenzyl)-6,7,8,9-tetrahydroimidazo[1,2-a]pyrido[3,4-e]pyrimidine-5(4H)-one], the IC50 in assay [1] was less than 1000 nM. Moreover, the EC50 in assay [2] was less than 1000 nM.

In assay [1], `O=c1c2c(n3ccnc3n1Cc1ccc(Cl)cc1)CCN(Cc1ccccc1)C2` [Compound I-117, 7-benzyl-4-(4-chlorobenzyl)-6,7,8,9-tetrahydroimidazo[1,2-a]pyrido[3,4-e]pyrimidine-5(4H)-one] registered an IC50 of less than 1000 nM. In addition, the EC50 in assay [2] is less than 1000 nM.

For `O=c1c2c(n3ccnc3n1Cc1ccc(Cl)cc1)CCN(Cc1cccc(F)c1)C2` [Compound I-118, 7-(3-fluorobenzyl)-4-(4-chlorobenzyl)-6,7,8,9-tetrahydroimidazo[1,2-a]pyrido[3,4-e]pyrimidine-5(4H)-one], the IC50 in assay [1] is less than 1000 nM. Further, the EC50 in assay [2] is less than 1000 nM.

In assay [1], `O=c1c2c(n3ccnc3n1Cc1ccc(Cl)cc1)CCN(Cc1cccc(Cl)c1)C2` [Compound I-119, 7-(3-chlorobenzyl)-4-(4-chlorobenzyl)-6,7,8,9-tetrahydroimidazo[1,2-a]pyrido[3,4-e]pyrimidine-5(4H)-one] displayed an IC50 of less than 1000 nM. This molecule gave a half-maximal effective concentration (EC50) in assay [2] of less than 1000 nM.

Consider `Cc1cccc(CN2CCc3c(c(=O)n(Cc4ccc(Cl)cc4)c4nccn34)C2)c1` [Compound I-120, 7-(3-methylbenzyl)-4-(4-chlorobenzyl)-6,7,8,9-tetrahydroimidazo[1,2-a]pyrido[3,4-e]pyrimidine-5(4H)-one], for which, in assay [1], the 50% inhibitory concentration (IC50) is less than 1000 nM. Moreover, the EC50 in assay [2] is less than 1000 nM.

The molecule `N#Cc1cccc(CN2CCc3c(c(=O)n(Cc4ccc(Cl)cc4)c4nccn34)C2)c1` [Compound I-121, 7-(3-cyanobenzyl)-4-(4-chlorobenzyl)-6,7,8,9-tetrahydroimidazo[1,2-a]pyrido[3,4-e]pyrimidine-5(4H)-one] registered an IC50 in assay [1] of less than 1000 nM. In assay [2], the EC50 was less than 1000 nM.

`O=c1c2c(n3ccnc3n1Cc1ccc(F)cc1F)CCN(Cc1ccccc1)C2` [Compound I-122, 7-benzyl-4-(2,4-difluorobenzyl)-6,7,8,9-tetrahydroimidazo[1,2-a]pyrido[3,4-e]pyrimidine-5(4H)-one] displayed an IC50 in assay [1] of less than 1000 nM. Moreover, the EC50 in assay [2] is less than 1000 nM.

As for `O=c1c2c(n3ccnc3n1Cc1ccc(F)cc1F)CCN(Cc1cccc(F)c1)C2` [Compound I-123, 7-(3-fluorobenzyl)-4-(2,4-difluorobenzyl)-6,7,8,9-tetrahydroimidazo[1,2-a]pyrido[3,4-e]pyrimidine-5(4H)-one], in assay [1], the IC50 was less than 1000 nM. Also, the EC50 in assay [2] is less than 1000 nM.

Turning to `O=c1c2c(n3ccnc3n1Cc1ccc(F)cc1F)CCN(Cc1cccc(Cl)c1)C2` [Compound I-124, 7-(3-chlorobenzyl)-4-(2,4-difluorobenzyl)-6,7,8,9-tetrahydroimidazo[1,2-a]pyrido[3,4-e]pyrimidine-5(4H)-one], in assay [1], the concentration for half-maximal inhibition (IC50) is less than 1000 nM. This molecule also displayed an EC50 in assay [2] of less than 1000 nM.

In the case of `Cc1cccc(CN2CCc3c(c(=O)n(Cc4ccc(F)cc4F)c4nccn34)C2)c1` [Compound I-125, 7-(3-methylbenzyl)-4-(2,4-difluorobenzyl)-6,7,8,9-tetrahydroimidazo[1,2-a]pyrido[3,4-e]pyrimidine-5(4H)-one], the IC50 in assay [1] was less than 1000 nM. Further, in assay [2], the EC50 was less than 1000 nM.

`N#Cc1cccc(CN2CCc3c(c(=O)n(Cc4ccc(F)cc4F)c4nccn34)C2)c1` [Compound I-126, 7-(3-cyanobenzyl)-4-(2,4-difluorobenzyl)-6,7,8,9-tetrahydroimidazo[1,2-a]pyrido[3,4-e]pyrimidine-5(4H)-one]: in assay [1], the concentration for half-maximal inhibition (IC50) is less than 1000 nM. In assay [2], the EC50 was less than 1000 nM.

In assay [1], `O=c1c2c(n3ccnc3n1Cc1ccc(C(F)(F)F)cc1)CCN(Cc1ccccc1)C2` [Compound I-127, 7-benzyl-4-(4-trifluoromethylbenzyl)-6,7,8,9-tetrahydroimidazo[1,2-a]pyrido[3,4-e]pyrimidine-5(4H)-one] gave an IC50 of less than 1000 nM. In assay [2], the EC50 is less than 1000 nM.

`O=c1c2c(n3ccnc3n1Cc1ccc(C(F)(F)F)cc1)CCN(Cc1cccc(F)c1)C2` [Compound I-128, 7-(3-fluorobenzyl)-4-(4-trifluoromethylbenzyl)-6,7,8,9-tetrahydroimidazo[1,2-a]pyrido[3,4-e]pyrimidine-5(4H)-one]: in assay [1], the IC50 is less than 1000 nM. For the same molecule, the half-maximal effective concentration (EC50) in assay [2] was less than 1000 nM.

Take `Cc1cccc(CN2CCc3c(c(=O)n(Cc4ccc(C(F)(F)F)cc4)c4nccn34)C2)c1` [Compound I-130, 7-(3-methylbenzyl)-4-(4-trifluoromethylbenzyl)-6,7,8,9-tetrahydroimidazo[1,2-a]pyrido[3,4-e]pyrimidine-5(4H)-one]: in assay [1], the IC50 was less than 1000 nM. Also, in assay [2], the EC50 was less than 1000 nM.

In general, IC50 refers to the concentration that inhibits the measured activity by half. A low value points to greater potency. As a reminder, the EC50 is the concentration at which the effect is half-maximal. Low readings indicate greater potency, high ones weaker potency.

(Values after patent US20240327408A1, “COMPOUNDS CONTAINING TETRAHYDRONAPHTHYRIDINONE OR TETRAHYDROPYRIDOPYRIMIDINONE SKELETON, PREPARATION METHOD THEREFOR AND PHARMACEUTICAL USE THEREOF” (CHINA PHARMACEUTICAL UNIVERSITY, priority 2021, published 2024).)
